These compounds were tested against T1, ALK (Homo sapiens, UniProt Q9UM73) (assay: ALK kinase assay (HTRF), apparent Ki). Conditions: apparent Ki from IC50 by Cheng-Prusoff; ALK (Millipore), 50 μM ATP; read-out: HTRF_ALK Human-Ki.
T1 construct: purchased Millipore
Type: biochemical
Experimental: The following procedure is used to determine ALK Activity.
ALK kinase assays were conducted with the indicated final concentrations unless otherwise specified. In 384 well black plates (Axygen), 8 μl of compound (2% DMSO) was incubated with 8 μl Lck-peptide substrate (0.5 μM, biotin-Ahx-GAEEEIYAAFFA-COOH) and 8 μl of a mixture of ALK (3 nM, Millipore) and ATP (50 μM) in reaction buffer (50 mM Hepes, pH 7.4; 10 mM MgCl2; 2 mM MnCl2; 0.1 mM sodium orthovanadate; 0.01% BSA and 1 mM DTT (added fresh before assay) for 1 h at room temperature. Reactions were then quenched by the addition of 30 μl quench solution (streptavidin-allophycocyanin and Europium-cryptate PT66 monoclonal antibody in 40 mM Hepes, pH 7.4; 480 mM KF; 66 mM EDTA; 0.01% Tween-20; and 0.1% BSA) at room temperature. Plates were read 1 h after quenching on an Envision Multilaber Reader and IC50 values were calculated using a sigmoidal fit of the concentration/inhibition response curves. These values were converted to apparent Ki values using the Cheng-Prusoff relationship.
Alternatively, 4 nM ALK (Millipore) and 50 μM ATP were pre-incubated for 30 min at room temperate in 384 well plates (Corning 3676) in 2.5× reaction buffer (125 nM SEB from Cisbio Bioassays, 12.5 mM MgCl2, 5 mM MnCl2, and 2.5 mM DTT). Reactions were initiated by the addition of 4 μl ALK-ATP mixture to 2 μl compounds (2% DMSO) and 4 μl TK-substrate biotin (Cisbio Bioassays). After incubation for 1 h at room temperature, reactions were quenched in 10 μl stop buffer (Cisbio detection buffer containing Streptavididn-XL665 and Eu-Cryptate PT66 monoclonal antibody). Plates were read 1 h after quenching on an Envision Multilaber Reader and IC50 values were calculated using a sigmoidal fit of the concentration/inhibition response curves. These values were converted to apparent Ki values using the Cheng-Prusoff relationship. Results are shown in Table 1 A correlates to an Ki=<100 nM, B correlates to an Ki between 100 nM and 1 μM, C correlates to an Ki=>1 μM.

T1 sequence (Q9UM73 19-1620): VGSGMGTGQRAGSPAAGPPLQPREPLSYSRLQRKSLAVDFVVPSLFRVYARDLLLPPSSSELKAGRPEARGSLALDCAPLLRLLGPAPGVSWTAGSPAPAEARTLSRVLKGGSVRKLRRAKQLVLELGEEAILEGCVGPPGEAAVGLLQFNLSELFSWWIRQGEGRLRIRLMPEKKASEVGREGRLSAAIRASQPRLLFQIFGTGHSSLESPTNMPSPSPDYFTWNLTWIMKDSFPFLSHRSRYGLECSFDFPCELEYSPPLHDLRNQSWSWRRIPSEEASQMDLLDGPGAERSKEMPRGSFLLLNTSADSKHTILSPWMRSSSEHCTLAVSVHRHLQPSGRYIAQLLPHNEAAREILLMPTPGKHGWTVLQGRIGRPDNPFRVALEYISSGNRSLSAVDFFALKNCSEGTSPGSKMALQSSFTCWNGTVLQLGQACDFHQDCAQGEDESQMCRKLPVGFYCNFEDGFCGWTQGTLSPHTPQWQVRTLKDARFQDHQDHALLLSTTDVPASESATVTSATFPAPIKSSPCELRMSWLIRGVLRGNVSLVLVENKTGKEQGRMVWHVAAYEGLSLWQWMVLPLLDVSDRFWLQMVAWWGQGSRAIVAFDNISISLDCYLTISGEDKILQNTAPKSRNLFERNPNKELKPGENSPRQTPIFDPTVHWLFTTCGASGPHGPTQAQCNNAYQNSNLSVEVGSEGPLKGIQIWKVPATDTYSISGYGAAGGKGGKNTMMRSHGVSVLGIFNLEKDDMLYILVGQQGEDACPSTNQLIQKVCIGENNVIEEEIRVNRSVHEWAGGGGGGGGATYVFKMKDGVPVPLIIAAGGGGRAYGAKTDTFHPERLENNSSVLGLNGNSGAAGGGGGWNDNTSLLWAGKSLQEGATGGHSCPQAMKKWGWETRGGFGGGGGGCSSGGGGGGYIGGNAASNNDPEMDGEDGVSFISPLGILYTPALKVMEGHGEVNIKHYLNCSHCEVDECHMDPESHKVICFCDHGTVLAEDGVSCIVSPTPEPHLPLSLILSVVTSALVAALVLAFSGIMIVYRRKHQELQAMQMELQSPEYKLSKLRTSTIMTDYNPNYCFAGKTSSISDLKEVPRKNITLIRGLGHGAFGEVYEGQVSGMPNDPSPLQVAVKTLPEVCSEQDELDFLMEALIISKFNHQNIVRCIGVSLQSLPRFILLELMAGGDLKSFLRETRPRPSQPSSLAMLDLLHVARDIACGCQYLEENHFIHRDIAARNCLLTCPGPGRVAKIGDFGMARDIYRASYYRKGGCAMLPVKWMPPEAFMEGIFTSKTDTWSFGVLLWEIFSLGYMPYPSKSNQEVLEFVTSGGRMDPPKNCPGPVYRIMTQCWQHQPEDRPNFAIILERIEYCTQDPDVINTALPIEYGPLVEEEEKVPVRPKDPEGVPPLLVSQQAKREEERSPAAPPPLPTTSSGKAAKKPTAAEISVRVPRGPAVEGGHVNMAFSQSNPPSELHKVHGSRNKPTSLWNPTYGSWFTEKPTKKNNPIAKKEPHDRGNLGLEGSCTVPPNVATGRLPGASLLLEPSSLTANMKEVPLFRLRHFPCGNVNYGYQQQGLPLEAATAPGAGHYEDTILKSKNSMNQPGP

Row | Ki [nM] | SMILES
1 | < 100 | COc1cc(N2CCNCC2)ccc1Nc1cc(C(C)c2c(Cl)cccc2Cl)cnc1C(N)=O (stereo not shown) [Example 2, 5-[1-(2,6-dichlorophenyl)ethyl]-3-{[2-methoxy-4-(piperazin-1-yl)phenyl]amino}pyridine-2-carboxamide]
2 | 100 to 1000 | COc1cccc(Cc2cnc(C(N)=O)c(Nc3ccc(N4CCN(C)CC4)cc3)c2)c1 [Example 22, 5-(3-methoxybenzyl)-3-{[4-(4-methylpiperazin-1-yl)phenyl]amino}pyridine-2-carboxamide]
3 | 100 to 1000 | CC(c1cccc(F)c1)c1cnc(C(N)=O)c(Nc2ccc(N3CCN(C)CC3)cc2)c1 (stereo not shown) [Example 34, 5-[1-(3-fluorophenyl)ethyl]-3-{[4-(4-methylpiperazin-1-yl)phenyl]amino}pyridine-2-carboxamide]
4 | < 100 | CN1CCN(c2ccc(Nc3cc(Cc4c(Cl)cccc4Cl)cnc3C(N)=O)cc2)CC1 [Example 31, 5-(2,6-dichlorobenzyl)-3-{[4-(4-methylpiperazin-1-yl)phenyl]amino}pyridine-2-carboxamide]
5 | 100 to 1000 | Cc1ccccc1-c1cnc(C(N)=O)c(Nc2ccc(N3CCN(C)CC3)cc2)c1 [Example 49, 5-(2-methylphenyl)-3-{[4-(4-methylpiperazin-1-yl)phenyl]amino}pyridine-2-carboxamide]
6 | 100 to 1000 | CN1CCN(c2ccc(Nc3cc(Cc4ccccc4)cnc3C(N)=O)cc2)CC1 [Example 3, 5-benzyl-3-{[4-(4-methylpiperazin-1-yl)phenyl]amino}pyridine-2-carboxamide]
7 | 100 to 1000 | CN1CCN(c2ccc(Nc3cc(Cc4cc(F)ccc4Cl)cnc3C(N)=O)cc2Cl)CC1 [Example 40, 5-(2-chloro-5-fluorobenzyl)-3-{[3-chloro-4-(4-methylpiperazin-1-yl)phenyl]amino}pyridine-2-carboxamide]
8 | 100 to 1000 | Cc1cccc(Cc2cnc(C(N)=O)c(Nc3ccc(N4CCN(C)CC4)cc3)c2)c1 [Example 26, 5-(3-methylbenzyl)-3-{[4-(4-methylpiperazin-1-yl)phenyl]amino}pyridine-2-carboxamide]
9 | 100 to 1000 | CN1CCN(c2ccc(Nc3cc(-c4cccc(C(N)=O)c4)cnc3C(N)=O)cc2)CC1 [Example 53, 5-(3-carbamoylphenyl)-3-{[4-(4-methylpiperazin-1-yl)phenyl]amino}pyridine-2-carboxamide]
10 | < 100 | CN1CCN(c2ccc(Nc3cc(-c4cccc(NS(C)(=O)=O)c4)cnc3C(N)=O)cc2)CC1 [Example 54, 3-{[4-(4-methylpiperazin-1-yl)phenyl]amino}-5-{3-[(methylsulfonyl)amino]phenyl}pyridine-2-carboxamide]
11 | < 100 | CN1CCN(c2ccc(Nc3cc(Cc4ccccc4F)cnc3C(N)=O)cc2)CC1 [Example 13, 5-(2-fluorobenzyl)-3-{[4-(4-methylpiperazin-1-yl)phenyl]amino}pyridine-2-carboxamide]
12 | 100 to 1000 | CN1CCN(c2ccc(Nc3cc(Cc4ccc(F)cc4)cnc3C(N)=O)cc2)CC1 [Example 12, 5-(4-fluorobenzyl)-3-{[4-(4-methylpiperazin-1-yl)phenyl]amino}pyridine-2-carboxamide]
13 | < 100 | COc1cc(N2CCNCC2)ccc1Nc1cc(Cc2cc(F)ccc2Cl)cnc1C(N)=O [Example 41, 5-(2-chloro-5-fluorobenzyl)-3-{[2-methoxy-4-(piperazin-1-yl)phenyl]amino}pyridine-2-carboxamide]
14 | > 1000 | CN1CCN(c2ccc(Nc3cc(-c4cccc(F)c4)cnc3C(N)=O)cc2)CC1 [Example 51, 5-(3-fluorophenyl)-3-{[4-(4-methylpiperazin-1-yl)phenyl]amino}pyridine-2-carboxamide]
15 | 100 to 1000 | CN1CCN(c2ccc(Nc3cc(Cc4ccc(F)c(F)c4)cnc3C(N)=O)cc2)CC1 [Example 19, 5-(3,4-difluorobenzyl)-3-{[4-(4-methylpiperazin-1-yl)phenyl]amino}pyridine-2-carboxamide]
16 | 100 to 1000 | C=C(c1ccccc1)c1cnc(C(N)=O)c(Nc2ccc(N3CCN(C)CC3)cc2)c1 [Example 10, 3-{[4-(4-methylpiperazin-1-yl)phenyl]amino}-5-(1-phenylvinyl)pyridine-2-carboxamide]
17 | 100 to 1000 | CN1CCN(c2ccc(Nc3cc(Cc4cccc(Cl)c4)cnc3C(N)=O)cc2)CC1 [Example 24, 5-(3-chlorobenzyl)-3-{[4-(4-methylpiperazin-1-yl)phenyl]amino}pyridine-2-carboxamide]
18 | 100 to 1000 | CN1CCN(c2ccc(Nc3cc(-c4ccccc4Cl)cnc3C(N)=O)cc2)CC1 [Example 58, 5-(2-chlorophenyl)-3-{[4-(4-methylpiperazin-1-yl)phenyl]amino}pyridine-2-carboxamide]
19 | 100 to 1000 | CN1CCN(c2ccc(Nc3cc(-c4cccc(NS(=O)(=O)c5ccn(C)n5)c4)cnc3C(N)=O)cc2)CC1 [Example 69, 3-{[4-(4-methylpiperazin-1-yl)phenyl]amino}-5-(3-{[(1-methyl-1H-pyrazol-3-yl)sulfonyl]amino}phenyl)pyridine-2-carboxamide]
20 | < 100 | COc1cc(N2CCNCC2)ccc1Nc1cc(Cc2c(Cl)cccc2Cl)cnc1C(N)=O [Example 1, 5-(2,6-dichlorobenzyl)-3-{[2-methoxy-4-(piperazin-1-yl)phenyl]amino}pyridine-2-carboxamide]
21 | 100 to 1000 | CN1CCN(c2ccc(Nc3cc(-c4ccccc4NS(C)(=O)=O)cnc3C(N)=O)cc2)CC1 [Example 55, 3-{[4-(4-methylpiperazin-1-yl)phenyl]amino}-5-{2-[(methylsulfonyl)amino]phenyl}pyridine-2-carboxamide]
22 | < 100 | CCN(CC)CCN1CCN(c2ccc(Nc3cc(Cc4c(F)cccc4Cl)cnc3C(N)=O)c(OC)c2)CC1 [Example 44, 5-(2-chloro-6-fluorobenzyl)-3-[(4-{4-[2-(diethylamino)ethyl]piperazin-1-yl}-2-methoxyphenyl)amino]pyridine-2-carboxamide]
23 | > 1000 | Cc1ccccc1Cc1cnc(C(N)=O)c(Nc2ccc(N3CCN(C)CC3)cc2)c1 [Example 27, 5-(2-methylbenzyl)-3-{[4-(4-methylpiperazin-1-yl)phenyl]amino}pyridine-2-carboxamide]
24 | 100 to 1000 | CN1CCN(c2cccc(Nc3cc(Cc4ccccc4)cnc3C(N)=O)c2)CC1 [Example 4, 5-benzyl-3-{[3-(4-methylpiperazin-1-yl)phenyl]amino}pyridine-2-carboxamide]
25 | 100 to 1000 | COc1cc(N2CCN(C)CC2)ccc1Nc1cc(-c2cccc(NS(C)(=O)=O)c2)cnc1C(N)=O [Example 57, 3-{[2-methoxy-4-(4-methylpiperazin-1-yl)phenyl]amino}-5-{3-[(methylsulfonyl)amino]phenyl}pyridine-2-carboxamide]
26 | 100 to 1000 | CN1CCN(c2ccc(Nc3cc(Cc4cccc(C(F)(F)F)c4)cnc3C(N)=O)cc2)CC1 [Example 33, 3-{[4-(4-methylpiperazin-1-yl)phenyl]amino}-5-[3-(trifluoromethyl)benzyl]pyridine-2-carboxamide]
27 | > 1000 | CN1CCN(c2ccc(Nc3cc(-c4ccccc4C#N)cnc3C(N)=O)cc2)CC1 [Example 61, 5-(2-cyanophenyl)-3-{[4-(4-methylpiperazin-1-yl)phenyl]amino}pyridine-2-carboxamide]
28 | 100 to 1000 | CN1CCN(c2ccc(Nc3cc(C(C)(C)c4cccc(F)c4)cnc3C(N)=O)cc2)CC1 [Example 35, 5-[2-(3-fluorophenyl)propan-2-yl]-3-{[4-(4-methylpiperazin-1-yl)phenyl]amino}pyridine-2-carboxamide]
